# Results reported in PubChem BioAssay (NCI).
#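 Following 48 hours of exposure in 96-well plates, responses at five concentrations were used to interpolate endpoints linearly. At the TGI there is no net growth.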
# System: HT29 colon
# Test: NCI anticancer screen, dose series, 48 h
row,Structure (SMILES),TGI
1,O=c1[nH]c(=O)n(C2COC(CO)C2O)cc1F (stereo unspecified),> 100 µM
2,O=[N+]([O-])c1ccc2nc(Nc3ccccc3)c(Nc3ccccc3)nc2c1,1.53 µM
3,COc1ccc(C2=CC(C(C)=C(C(N)=O)C(N)=O)C=C(c3ccc(Br)cc3)C2)c(OC)c1 (stereo unspecified),> 100 µM
4,CC(C)(CN1CCCCC1)C(/C=C/c1ccc(Cl)cc1)=N\NC(=O)N/N=C(/C=C/c1ccc(Cl)cc1)C(C)(C)CN1CCCCC1,12.2 µM
5,CC(C)C(NC(=O)Oc1ccccc1)C(=O)NC1c2c(Br)sc(Br)c2C(=O)C1O (stereo unspecified),7.71 µM
6,CSC(=O)c1sc(SC)[n+](-c2ccccc2)c1O,46.5 µM
7,CC1=NN(c2nc(N)nc(COc3ccc(N)cc3)n2)C(C)(C)C1,> 100 µM
8,Cc1cc(OC(=O)Nc2cccc3ccccc23)c(C(C)C)cc1C(=S)Nc1ccccc1,35.8 µM
9,Cc1[nH]c(=O)nc2sc(=NC3CCCCC3)n(C3CCCCC3)c(=O)c12,> 100 µM
10,C[C@]12c3c4cc(NC(=O)C(=O)NCc5ccc(-c6ccccn6)nc5)cc3Oc3cc(NC(=O)C(=O)NCc5ccc(-c6ccccn6)nc5)cc(c31)OC1C=C(NC(=O)C(=O)NCc3ccc(-c5ccccn5)nc3)C=C(O4)C12 (stereo partly specified),> 100 µM
11,C/C(=N\NC(N)=S)c1ccc2c(c1)Sc1ccccc1O2,5.83 µM
12,O=c1[nH]c(=O)c2c3n(cc2[nH]1)CCCCC3,> 100 µM
13,COc1ccc(C(C)NNC(=O)c2ccncc2)cc1OC (stereo unspecified),> 100 µM
14,C[C@]12[C@@H]3CC[C@H]1[C@@H](O)C(=O)N2CC3,> 100 µM
15,O=C(C(=O)n1ccc2ccccc21)n1ccc2ccccc21,> 100 µM
16,COc1ccc(NC(=S)c2ccc(CN3CCCCC3)s2)cc1,18.3 µM
17,Cc1ccc(S[C@@H](C)[C@@](O)(CF)CN(Cc2ccccc2)C(=O)C(F)(F)F)cc1,27.6 µM
18,CCN(CC)CCCNC(=O)c1cc(-c2nccn2C)nc2ccccc12,> 100 µM
19,COc1ccc2oc3c(C)cc4c(OC)nnc(OC)c4c3c2c1,> 100 µM
20,COc1ccc(S(=O)(=O)n2c3c(c4ccccc42)[C@@H]2[C@@H](CCCN2C(=O)CS(=O)c2ccc(C)cc2)[C@H](Cl)C3)cc1 (stereo partly specified),> 100 µM
21,CCOC(=O)CCCSCCCC(=O)CCCSCCCC(=O)OCC,> 100 µM
22,COc1cccc(-c2cc(=O)c3cc(N4CCCCC4)ccc3[nH]2)c1,0.0316 µM

# System: IGROV1 ovarian
# Test: NCI anticancer screen, dose series, 48 h
row,Structure (SMILES),TGI
1,COC(=O)CC(C)(NS(=O)c1ccc(C)cc1)c1ccccc1 (stereo unspecified),> 100 µM
2,CCCCCCc1cc2cc(-c3cn4ccsc4n3)c(=O)oc2cc1O,> 100 µM
3,O=C(O)C1C2c3ccccc3C(c3ccccc32)C1C(=O)NCC1CC1 (stereo unspecified),> 100 µM
4,COC(=O)[C@]1(C)CCC[C@@]2(C)C1CC[C@@]13C=C(C(C)C)[C@@H](CC1=O)CC23 (stereo partly specified),> 100 µM
5,O=c1c(F)cn(Cc2c(Cl)cccc2Cl)c(=O)n1Cc1c(Cl)cccc1Cl,> 31.6 µM
6,Cc1ccc(Nc2nc(NNC(=O)Cc3ccccc3)nc(NNC(=O)c3ccncc3)n2)cc1,> 10 µM
7,Cc1ccc2nc(-c3ccccc3)cc(=O)n2c1,> 100 µM
8,C=CCNC(=S)N/C=C(\C#N)C(N)=O,> 100 µM
9,C=C1C(=O)O[C@@H]2/C=C(C)/C=C\[C@@H]3O[C@@]3(C)C[C@@H](O)C12 (stereo partly specified),28.6 µM
10,O=c1[nH]c(=O)n(C2COC(CO)C2O)cc1F (stereo unspecified),> 100 µM
11,O=[N+]([O-])c1ccc2nc(Nc3ccccc3)c(Nc3ccccc3)nc2c1,4.98 µM
12,COc1ccc(C2=CC(C(C)=C(C(N)=O)C(N)=O)C=C(c3ccc(Br)cc3)C2)c(OC)c1 (stereo unspecified),> 100 µM
13,CC(C)(CN1CCCCC1)C(/C=C/c1ccc(Cl)cc1)=N\NC(=O)N/N=C(/C=C/c1ccc(Cl)cc1)C(C)(C)CN1CCCCC1,13.4 µM
14,CC(C)C(NC(=O)Oc1ccccc1)C(=O)NC1c2c(Br)sc(Br)c2C(=O)C1O (stereo unspecified),8.11 µM
15,CSC(=O)c1sc(SC)[n+](-c2ccccc2)c1O,37.2 µM
16,CC1=NN(c2nc(N)nc(COc3ccc(N)cc3)n2)C(C)(C)C1,> 100 µM
17,Cc1cc(OC(=O)Nc2cccc3ccccc23)c(C(C)C)cc1C(=S)Nc1ccccc1,30.4 µM
18,Cc1[nH]c(=O)nc2sc(=NC3CCCCC3)n(C3CCCCC3)c(=O)c12,> 100 µM
19,C[C@]12c3c4cc(NC(=O)C(=O)NCc5ccc(-c6ccccn6)nc5)cc3Oc3cc(NC(=O)C(=O)NCc5ccc(-c6ccccn6)nc5)cc(c31)OC1C=C(NC(=O)C(=O)NCc3ccc(-c5ccccn5)nc3)C=C(O4)C12 (stereo partly specified),40.6 µM
20,O=c1[nH]c(=O)c2c3n(cc2[nH]1)CCCCC3,> 100 µM
21,COc1ccc(C(C)NNC(=O)c2ccncc2)cc1OC (stereo unspecified),> 100 µM
22,C[C@]12[C@@H]3CC[C@H]1[C@@H](O)C(=O)N2CC3,> 100 µM
23,O=C(C(=O)n1ccc2ccccc21)n1ccc2ccccc21,53.1 µM
24,COc1ccc(NC(=S)c2ccc(CN3CCCCC3)s2)cc1,49.2 µM
25,Cc1ccc(S[C@@H](C)[C@@](O)(CF)CN(Cc2ccccc2)C(=O)C(F)(F)F)cc1,> 100 µM
26,CCN(CC)CCCNC(=O)c1cc(-c2nccn2C)nc2ccccc12,> 100 µM
27,COc1ccc(S(=O)(=O)n2c3c(c4ccccc42)[C@@H]2[C@@H](CCCN2C(=O)CS(=O)c2ccc(C)cc2)[C@H](Cl)C3)cc1 (stereo partly specified),> 100 µM
28,CCOC(=O)CCCSCCCC(=O)CCCSCCCC(=O)OCC,> 100 µM
29,CC(C)=C[C@H]1C[C@H](C)[C@H]2CC[C@H](C)c3c2c1c(C)c1ncoc31,27 µM
30,COc1cccc(-c2cc(=O)c3cc(N4CCCCC4)ccc3[nH]2)c1,> 100 µM

# System: A498 renal
# Test: NCI anticancer screen, dose series, 48 h
row,Structure (SMILES),TGI
1,COC(=O)CC(C)(NS(=O)c1ccc(C)cc1)c1ccccc1 (stereo unspecified),> 100 µM
2,CCCCCCc1cc2cc(-c3cn4ccsc4n3)c(=O)oc2cc1O,> 100 µM
3,O=C(O)C1C2c3ccccc3C(c3ccccc32)C1C(=O)NCC1CC1 (stereo unspecified),> 100 µM
4,O=c1c(F)cn(Cc2c(Cl)cccc2Cl)c(=O)n1Cc1c(Cl)cccc1Cl,> 31.6 µM
5,Cc1ccc(Nc2nc(NNC(=O)Cc3ccccc3)nc(NNC(=O)c3ccncc3)n2)cc1,> 10 µM
6,C=CCNC(=S)N/C=C(\C#N)C(N)=O,> 100 µM
7,C=C1C(=O)O[C@@H]2/C=C(C)/C=C\[C@@H]3O[C@@]3(C)C[C@@H](O)C12 (stereo partly specified),30.4 µM
8,O=c1[nH]c(=O)n(C2COC(CO)C2O)cc1F (stereo unspecified),> 100 µM
9,O=[N+]([O-])c1ccc2nc(Nc3ccccc3)c(Nc3ccccc3)nc2c1,11.6 µM
10,COc1ccc(C2=CC(C(C)=C(C(N)=O)C(N)=O)C=C(c3ccc(Br)cc3)C2)c(OC)c1 (stereo unspecified),> 100 µM
11,CC(C)(CN1CCCCC1)C(/C=C/c1ccc(Cl)cc1)=N\NC(=O)N/N=C(/C=C/c1ccc(Cl)cc1)C(C)(C)CN1CCCCC1,20.4 µM
12,CC(C)C(NC(=O)Oc1ccccc1)C(=O)NC1c2c(Br)sc(Br)c2C(=O)C1O (stereo unspecified),> 25 µM
13,CSC(=O)c1sc(SC)[n+](-c2ccccc2)c1O,> 100 µM
14,CC1=NN(c2nc(N)nc(COc3ccc(N)cc3)n2)C(C)(C)C1,> 100 µM
15,Cc1[nH]c(=O)nc2sc(=NC3CCCCC3)n(C3CCCCC3)c(=O)c12,> 100 µM
16,C/C(=N\NC(N)=S)c1ccc2c(c1)Sc1ccccc1O2,8.63 µM
17,O=c1[nH]c(=O)c2c3n(cc2[nH]1)CCCCC3,> 100 µM
18,COc1ccc(C(C)NNC(=O)c2ccncc2)cc1OC (stereo unspecified),> 100 µM
19,C[C@]12[C@@H]3CC[C@H]1[C@@H](O)C(=O)N2CC3,> 100 µM
20,O=C(C(=O)n1ccc2ccccc21)n1ccc2ccccc21,> 100 µM
21,COc1ccc(NC(=S)c2ccc(CN3CCCCC3)s2)cc1,31.5 µM
22,Cc1ccc(S[C@@H](C)[C@@](O)(CF)CN(Cc2ccccc2)C(=O)C(F)(F)F)cc1,29.7 µM
23,CCN(CC)CCCNC(=O)c1cc(-c2nccn2C)nc2ccccc12,> 100 µM
24,COc1ccc2oc3c(C)cc4c(OC)nnc(OC)c4c3c2c1,> 100 µM
25,COc1ccc(S(=O)(=O)n2c3c(c4ccccc42)[C@@H]2[C@@H](CCCN2C(=O)CS(=O)c2ccc(C)cc2)[C@H](Cl)C3)cc1 (stereo partly specified),> 100 µM
26,CC(C)=C[C@H]1C[C@H](C)[C@H]2CC[C@H](C)c3c2c1c(C)c1ncoc31,34.9 µM
27,COc1cccc(-c2cc(=O)c3cc(N4CCCCC4)ccc3[nH]2)c1,> 100 µM

# System: DU-145 prostate
# Test: NCI anticancer screen, dose series, 48 h
row,Structure (SMILES),TGI
1,COC(=O)CC(C)(NS(=O)c1ccc(C)cc1)c1ccccc1 (stereo unspecified),> 100 µM
2,CCCCCCc1cc2cc(-c3cn4ccsc4n3)c(=O)oc2cc1O,> 100 µM
3,O=C(O)C1C2c3ccccc3C(c3ccccc32)C1C(=O)NCC1CC1 (stereo unspecified),> 100 µM
4,COC(=O)[C@]1(C)CCC[C@@]2(C)C1CC[C@@]13C=C(C(C)C)[C@@H](CC1=O)CC23 (stereo partly specified),> 100 µM
5,O=c1c(F)cn(Cc2c(Cl)cccc2Cl)c(=O)n1Cc1c(Cl)cccc1Cl,> 100 µM
6,Cc1ccc(Nc2nc(NNC(=O)Cc3ccccc3)nc(NNC(=O)c3ccncc3)n2)cc1,> 10 µM
7,Cc1ccc2nc(-c3ccccc3)cc(=O)n2c1,> 100 µM
8,C=CCNC(=S)N/C=C(\C#N)C(N)=O,> 100 µM
9,C=C1C(=O)O[C@@H]2/C=C(C)/C=C\[C@@H]3O[C@@]3(C)C[C@@H](O)C12 (stereo partly specified),14.5 µM
10,O=c1[nH]c(=O)n(C2COC(CO)C2O)cc1F (stereo unspecified),> 100 µM
11,O=[N+]([O-])c1ccc2nc(Nc3ccccc3)c(Nc3ccccc3)nc2c1,4.6 µM
12,COc1ccc(C2=CC(C(C)=C(C(N)=O)C(N)=O)C=C(c3ccc(Br)cc3)C2)c(OC)c1 (stereo unspecified),> 100 µM
13,CC(C)(CN1CCCCC1)C(/C=C/c1ccc(Cl)cc1)=N\NC(=O)N/N=C(/C=C/c1ccc(Cl)cc1)C(C)(C)CN1CCCCC1,18 µM
14,CC(C)C(NC(=O)Oc1ccccc1)C(=O)NC1c2c(Br)sc(Br)c2C(=O)C1O (stereo unspecified),> 25 µM
15,CSC(=O)c1sc(SC)[n+](-c2ccccc2)c1O,29.5 µM
16,CC1=NN(c2nc(N)nc(COc3ccc(N)cc3)n2)C(C)(C)C1,> 100 µM

row,Structure (SMILES),TGI
1,Cc1cc(OC(=O)Nc2cccc3ccccc23)c(C(C)C)cc1C(=S)Nc1ccccc1,82 µM
2,Cc1[nH]c(=O)nc2sc(=NC3CCCCC3)n(C3CCCCC3)c(=O)c12,> 100 µM
3,C[C@]12c3c4cc(NC(=O)C(=O)NCc5ccc(-c6ccccn6)nc5)cc3Oc3cc(NC(=O)C(=O)NCc5ccc(-c6ccccn6)nc5)cc(c31)OC1C=C(NC(=O)C(=O)NCc3ccc(-c5ccccn5)nc3)C=C(O4)C12 (stereo partly specified),98.6 µM
4,C/C(=N\NC(N)=S)c1ccc2c(c1)Sc1ccccc1O2,> 100 µM
5,O=c1[nH]c(=O)c2c3n(cc2[nH]1)CCCCC3,> 100 µM
6,COc1ccc(C(C)NNC(=O)c2ccncc2)cc1OC (stereo unspecified),> 100 µM
7,C[C@]12[C@@H]3CC[C@H]1[C@@H](O)C(=O)N2CC3,> 100 µM
8,O=C(C(=O)n1ccc2ccccc21)n1ccc2ccccc21,> 100 µM
9,COc1ccc(NC(=S)c2ccc(CN3CCCCC3)s2)cc1,> 100 µM
10,Cc1ccc(S[C@@H](C)[C@@](O)(CF)CN(Cc2ccccc2)C(=O)C(F)(F)F)cc1,53.2 µM
11,CCN(CC)CCCNC(=O)c1cc(-c2nccn2C)nc2ccccc12,> 100 µM
12,COc1ccc2oc3c(C)cc4c(OC)nnc(OC)c4c3c2c1,> 100 µM
13,COc1ccc(S(=O)(=O)n2c3c(c4ccccc42)[C@@H]2[C@@H](CCCN2C(=O)CS(=O)c2ccc(C)cc2)[C@H](Cl)C3)cc1 (stereo partly specified),> 100 µM
14,CCOC(=O)CCCSCCCC(=O)CCCSCCCC(=O)OCC,> 100 µM
15,CC(C)=C[C@H]1C[C@H](C)[C@H]2CC[C@H](C)c3c2c1c(C)c1ncoc31,33.9 µM
16,COc1cccc(-c2cc(=O)c3cc(N4CCCCC4)ccc3[nH]2)c1,> 100 µM
